Measured values reported in patent publication US20250289814A1, “COMPOUNDS AS PARP1 INHIBITIORS” (NINGBO NEWBAY TECHNOLOGY DEVELOPMENT CO., LTD., priority 2022, published 2025).
Read-outs that look alike come from different tables or passages of the source.

How the values were obtained:
[1] = Caco2 (A-B/B-A) permeability; type: in vitro ADME; details: human; for efflux ratio at 120 min, 5 μM: Caco-2, pH 7.4, PappB-A/PappA-B, read-out: Caco2 efflux ratio (ER); for Papp A→B at 120 min, 5 μM: Caco-2, pH 7.4, apical-to-basolateral, read-out: Caco2 A-B apparent permeability (Papp); for Papp A→B at 120 min, 5 μM / Papp B→A at 120 min, 5 μM: HBSS pH 7.4, 120 min, 37° C.; for Papp B→A at 120 min, 5 μM: Caco-2, pH 7.4, basolateral-to-apical, read-out: Caco2 B-A apparent permeability (Papp)
Description: The apical-to-basolateral (A-B) and basolateral-to-apical (B-A) transport of 5 μM test compounds in HBSS (10 mM HEPES, pH 7.4) was measured across Caco-2 cell monolayers (cells sourced from American Type Culture Collection, Manassas, Virgina). Duplicate incubations were performed at approximately 37° C. for 120 min, with functionality of the test system confirmed using 5 μM propranolol and digoxin as control compounds. Aliquots (50 μL) from both apical and basolateral wells were transferred into two fresh 96-well plates and quenched with acetonitrile solution containing analytical internal standards. Samples were vortexed mixed, centrifuged and a 100 μL aliquot of the resulting supernatant mixed with an equal volume of ultra-pure water prior to analysis by UPLC-MS/MS. The concentrations of test compound and control compounds in the incubation medium of donor and receiver compartments at the beginning and the end of the incubation period were used to calculate the apparent permeability (Papp) from A-B and B-A directions. The efflux ratio (ER) was expressed as PappB-A/PappA-B. The integrity of the cell monolayers after 2 hours incubation was confirmed using the marker reagent Lucifer yellow.

[2] = target: Recombinant full length PARP1 (Homo sapiens (Human), UniProt P09874); experiment: FP assay PARP1 (fluorescence anisotropy probe displacement); type: binding; details: 20 nM PARP1, 8 nM fluorescent probe, 4 h, room temperature
Description: (§1) FP experiments were carried out at room temperature using no-binding black 384-well microplates. Recombinant full length PARP1 and PARP2 proteins produced in house were diluted to 20 nM and 60 nM, respectively, with assay buffer (50 mM Tris pH 8, 0.001% Triton X100, 10 mM MgCl2, and 150 mM NaCl) and incubated for 4 h with an equivalent volume of the 8 nM fluorescent probe diluted with assay buffer. Fluorescence anisotropy of the probe when bound to the proteins was measured in the presence of test compounds or solvent control and the effect on anisotropy determined. Polarization values were read using an Envision plate reader using excitation and emission wavelengths of 590 and 630 nm, respectively. All FP values are expressed as mP units. Inhibition ratio was calculated using readout (mP) following the equation as below: […]
(§2) % inhibition values for different test compound concentrations were calculated and fitted to a four parameter logistic plot in order to determine the IC50 value using XLfit.

[3] = tested on: DLD1-BRCA2−/− cells; experiment: Cell proliferation assay in DLD1-BRCA2−/− cell lines (CellTiter-Glo, 7 days); type: cell-based
Description: BRCA2 (−/−) cells cultured in RPMI 1640+10% FBS were harvested and diluted to a density of 1×10^4 cells/mL and 2×10^4 cells/mL, respectively. Cells (40 μL/well) were seeded into 384-well cell culture plates. Plates were covered and incubated at 37° C., 5% CO2 overnight prior to the addition of test compounds or vehicle. The plates were then incubated at 37° C., 5% CO2 for 7 days. On day 8, the plates were removed from incubator and equilibrated at room temperature for 15 minutes. CellTiter-Glo (40 μL, at 1:1 to culture medium) is added into each well and the plates were placed at room temperature for 30 min. Luminescence was measured using an Envision plate reader. The resultant data were analysed as follows; where LC is culture medium without cells:
% inhibition values for different test compound concentrations were calculated and fitted to a four parameter logistic plot in order to determine the IC50 value using XLfit

[4] = target: Recombinant full length PARP2 (Homo sapiens (Human), UniProt Q9UGN5); experiment: FP assay PARP2 (fluorescence anisotropy probe displacement); type: binding; details: 60 nM PARP2, 8 nM fluorescent probe, 4 h, room temperature
Description: as §1, §2

Sequence of Recombinant full length PARP2 (Q9UGN5 whole entry): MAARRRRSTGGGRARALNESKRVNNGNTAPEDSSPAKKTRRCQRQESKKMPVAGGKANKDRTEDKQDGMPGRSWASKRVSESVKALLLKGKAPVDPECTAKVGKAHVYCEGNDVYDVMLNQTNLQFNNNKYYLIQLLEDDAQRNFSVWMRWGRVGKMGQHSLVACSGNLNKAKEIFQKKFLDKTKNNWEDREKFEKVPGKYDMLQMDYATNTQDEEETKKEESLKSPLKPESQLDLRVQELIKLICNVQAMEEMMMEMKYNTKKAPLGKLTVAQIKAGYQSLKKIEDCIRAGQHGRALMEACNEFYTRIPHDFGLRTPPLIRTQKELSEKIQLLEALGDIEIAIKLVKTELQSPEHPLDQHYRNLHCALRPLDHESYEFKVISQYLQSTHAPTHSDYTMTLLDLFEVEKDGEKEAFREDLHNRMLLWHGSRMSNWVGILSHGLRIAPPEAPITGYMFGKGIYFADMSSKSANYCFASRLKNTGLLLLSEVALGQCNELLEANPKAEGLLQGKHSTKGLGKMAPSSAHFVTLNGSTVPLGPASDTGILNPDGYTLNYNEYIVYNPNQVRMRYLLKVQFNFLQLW
Sequence of Recombinant full length PARP1 (P09874 whole entry): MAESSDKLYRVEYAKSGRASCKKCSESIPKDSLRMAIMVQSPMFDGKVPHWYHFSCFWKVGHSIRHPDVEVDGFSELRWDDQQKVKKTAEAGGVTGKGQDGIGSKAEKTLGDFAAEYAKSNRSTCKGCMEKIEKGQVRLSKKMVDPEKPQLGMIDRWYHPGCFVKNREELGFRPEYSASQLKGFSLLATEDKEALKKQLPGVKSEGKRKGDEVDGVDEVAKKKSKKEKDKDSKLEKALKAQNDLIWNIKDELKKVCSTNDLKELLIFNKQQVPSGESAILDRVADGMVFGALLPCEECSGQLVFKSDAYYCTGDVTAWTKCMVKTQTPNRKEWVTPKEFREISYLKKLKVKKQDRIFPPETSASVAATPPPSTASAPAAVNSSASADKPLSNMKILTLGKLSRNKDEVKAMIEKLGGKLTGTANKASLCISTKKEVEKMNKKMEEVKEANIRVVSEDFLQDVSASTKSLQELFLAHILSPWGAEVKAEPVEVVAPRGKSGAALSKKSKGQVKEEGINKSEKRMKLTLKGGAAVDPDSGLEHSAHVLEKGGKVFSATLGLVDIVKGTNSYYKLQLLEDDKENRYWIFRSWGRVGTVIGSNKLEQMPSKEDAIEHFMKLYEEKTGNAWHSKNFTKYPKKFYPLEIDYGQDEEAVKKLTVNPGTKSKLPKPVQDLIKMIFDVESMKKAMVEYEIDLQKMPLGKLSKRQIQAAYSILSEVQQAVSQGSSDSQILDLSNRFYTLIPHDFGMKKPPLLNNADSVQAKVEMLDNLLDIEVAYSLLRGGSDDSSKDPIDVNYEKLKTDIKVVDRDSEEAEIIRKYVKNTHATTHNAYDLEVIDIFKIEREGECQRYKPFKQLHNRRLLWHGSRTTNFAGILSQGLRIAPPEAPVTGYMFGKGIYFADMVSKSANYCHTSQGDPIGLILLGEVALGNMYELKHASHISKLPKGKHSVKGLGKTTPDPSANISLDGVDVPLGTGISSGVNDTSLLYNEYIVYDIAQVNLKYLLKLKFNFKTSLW

| Compound | efflux ratio at 120 min, 5 μM [1] | Papp A→B at 120 min, 5 μM [1] [×10⁻⁶ cm/s] | Papp B→A at 120 min, 5 μM [1] [×10⁻⁶ cm/s] | IC50 [2] [nM] | IC50 ([3]; Homo sapiens, DLD-1, 168 h) [nM] | IC50 [4] [µM] | IC50 [3] [nM] |
| --- | --- | --- | --- | --- | --- | --- | --- |
| CCc1nc2ccc([C@H](C)N3CC(Oc4ccc(C(=O)NC)nc4)C3)cc2[nH]c1=O (single isomer, unassigned) [Compound 52, (enantiomer 1 or 2)-5-((1-(1-(2-ethyl-3-oxo-3,4-dihydroquinoxalin-6-yl)ethyl)azetidin-3-yl)oxy)-N-methylpicolinamide] | 2.09 | 14.9 | 31.2 | 35.2 | 18.9 | > 10 | – |
| CCc1cc2ncc([C@@H](C)N3CC(Oc4ccc(C(=O)NC)nc4F)C3)cc2[nH]c1=O (single isomer, unassigned; enantiomer 1) [Compound 45, (enantiomer 1)-5-((1-(1-(7-ethyl-6-oxo-5,6-dihydro-1,5-naphthyridin-3-yl)ethyl)azetidin-3-yl)oxy)-6-fluoro-N-methylpicolinamide] | 10.5 | 4.18 | 43.9 | 6.4 | – | 0.365 | 69.3 |
| CCc1cc2cnc([C@H](C)N3CC(Oc4ccc(C(=O)NC)nc4F)C3)cc2[nH]c1=O (single isomer, unassigned; enantiomer 1) [Compound 49, (enantiomer 1)-5-((1-(1-(3-ethyl-2-oxo-1,2-dihydro-1,6-naphthyridin-7-yl)ethyl)azetidin-3-yl)oxy)-6-fluoro-N-methylpicolinamide] | 8.64 | 3.46 | 29.9 | 14.5 | 5.7 | > 10 | – |
| CCc1cc2ncc(CN3CC(Oc4cnc(C(=O)NC)c(F)c4)C3)cc2[nH]c1=O [Compound 2, 5-((1-((7-ethyl-6-oxo-5,6-dihydro-1,5-naphthyridin-3-yl)methyl)azetidin-3-yl)oxy)-3-fluoro-N-methylpicolinamide] | 19.2 | 1.47 | 28.3 | 7.7 | 288 | > 10 | – |
| CNC(=O)c1ccc(OC2CN(Cc3cnc4cc(C5CC5)c(=O)[nH]c4c3)C2)cn1 [Compound 6, 5-((1-((7-cyclopropyl-6-oxo-5,6-dihydro-1,5-naphthyridin-3-yl)methyl)azetidin-3-yl)oxy)-N-methylpicolinamide] | 9.29 | 3.32 | 30.8 | 7 | 62.1 | > 10 | – |
| CCc1cc2ncc(CN3CCC(Cc4ccc(C(=O)NC)nc4)C3)cc2[nH]c1=O (stereo not drawn) [Compound 7, 5-((1-((7-ethyl-6-oxo-5,6-dihydro-1,5-naphthyridin-3-yl)methyl)pyrrolidin-3-yl)methyl)-N-methylpicolinamide] | – | – | – | 7.8 | 207 | 7.04 | – |
| CCc1cc2ncc(CN3C[C@@H](F)[C@@H](Oc4ccc(C(=O)NC)nc4)C3)cc2[nH]c1=O [Compound 8, 5-(((3S, 4R)-1-((7-ethyl-6-oxo-5,6-dihydro-1,5-naphthyridin-3-yl)methyl)-4-fluoropyrrolidin-3-yl)oxy)-N-methylpicolinamide] | 11.8 | 2.45 | 28.8 | 3.8 | 51.1 | > 10 | – |
| CCc1cc2ncc(CN3CCC(Nc4ccc(C(=O)NC)nc4)C3)cc2[nH]c1=O (stereo not drawn) [Compound 10, 5-((1-((7-ethyl-6-oxo-5,6-dihydro-1,5-naphthyridin-3-yl)methyl)pyrrolidin-3-yl)amino)-N-methylpicolinamide] | 39.1 | 0.57 | 22.4 | 3.1 | 11.5 | > 10 | – |
| CCc1cc2ncc(CN3CC[C@@H](Oc4ccc(C(=O)NC)nc4)C3)cc2[nH]c1=O [Compound 11, (R)-5-((1-((7-ethyl-6-oxo-5,6-dihydro-1,5-naphthyridin-3-yl)methyl)pyrrolidin-3-yl)oxy)-N-methylpicolinamide] | 9.69 | 4.13 | 40 | 4.8 | 6 | > 10 | – |
| CNC(=O)c1ccc(OC2CCN(Cc3cnc4cc(C5CC5)c(=O)[nH]c4c3)C2)cn1 (stereo not drawn) [Compound 14, 5-((1-((7-cyclopropyl-6-oxo-5,6-dihydro-1,5-naphthyridin-3-yl)methyl)pyrrolidin-3-yl)oxy)-N-methylpicolinamide] | – | – | – | 6.6 | 48.6 | > 10 | – |
| CCc1cc2ncc(CN3CCC(Oc4ccc(C(=O)NC)nc4)CC3)cc2[nH]c1=O [Compound 15, 5-((1-((7-ethyl-6-oxo-5,6-dihydro-1,5-naphthyridin-3-yl)methyl)piperidin-4-yl)oxy)-N-methylpicolinamide] | – | – | – | 18 | 195 | > 10 | – |
| CCc1cc2ncc(C(C)N3CC(Oc4ccc(C(=O)NC)nc4C)C3)cc2[nH]c1=O (stereo not drawn) [Compound 19, 5-((1-(1-(7-ethyl-6-oxo-5,6-dihydro-1,5-naphthyridin-3-yl)ethyl)azetidin-3-yl)oxy)-N,6-dimethylpicolinamide] | – | – | – | 6.1 | > 1000 | > 10 | – |
| CCc1cc2ncc(C(C)N3CC(Oc4ccc(C(=O)NC)nc4F)C3)cc2[nH]c1=O (stereo not drawn) [Compound 21, 5-((1-(1-(7-ethyl-6-oxo-5,6-dihydro-1,5-naphthyridin-3-yl)ethyl)azetidin-3-yl)oxy)-6-fluoro-N-methylpicolinamide] | – | – | – | 3.5 | 17.2 | 4.81 | – |
| CCc1cc2ncc(CN3C[C@H](Oc4ccc(C(=O)NC)nc4)[C@@H](F)C3)cc2[nH]c1=O [Compound 24, 5-(((3S,4S)-1-((7-ethyl-6-oxo-5,6-dihydro-1,5-naphthyridin-3-yl)methyl)-4-fluoropyrrolidin-3-yl)oxy)-N-methylpicolinamide] | – | – | – | 7.3 | 542 | > 10 | – |
| CCc1cc2ncc(CN3CC[C@@H](Oc4ccc(C(=O)NC)nc4F)C3)cc2[nH]c1=O [Compound 29, (R)-5-((1-((7-ethyl-6-oxo-5,6-dihydro-1,5-naphthyridin-3-yl)methyl)pyrrolidin-3-yl)oxy)-6-fluoro-N-methylpicolinamide] | – | – | – | 9.6 | 7.9 | > 10 | – |
| CCc1cc2ncc(CN3CC[C@@H](Oc4ccc(C(=O)NC)nc4C)C3)cc2[nH]c1=O [Compound 30, (R)-5-((1-((7-ethyl-6-oxo-5,6-dihydro-1,5-naphthyridin-3-yl)methyl)pyrrolidin-3-yl)oxy)-N,6-dimethylpicolinamide] | – | – | – | 4.4 | 256 | > 10 | – |
| CCc1cc2ncc(CN3CC(Oc4ccc(C(=O)NC)nc4C)C3)cc2[nH]c1=O [Compound 44, 5-((1-((7-ethyl-6-oxo-5,6-dihydro-1,5-naphthyridin-3-yl)methyl)azetidin-3-yl)oxy)-N,6-dimethylpicolinamide] | – | – | – | 4.4 | > 1000 | > 10 | – |
| CCc1cc2ncc(CN3CC[C@H](Oc4ccc(C(=O)NC)nc4)C3)cc2[nH]c1=O [Compound 58, (S)-5-((1-((7-ethyl-6-oxo-5,6-dihydro-1,5-naphthyridin-3-yl)methyl)pyrrolidin-3-yl)oxy)-N-methylpicolinamide] | – | – | – | 44.7 | > 1000 | > 10 | – |
